Values of other authors in patent US8911774B2, “Topical composition for anti-aging skin treatment using dual DNA repair mechanism and method of use” (Cellhealth Technologies Ltd., priority 2009, dated 2014).
Values belong to the compound of their own block, whether it stands above or below them.

Assays:
[1] = system: tyrosinase
[2] = system: 8-OHdG
[3] = system: p53
[4] = system: melanin synthesis; conditions: at a concentration of 0.1%
[5] = system: skin damage; conditions: shown clinically

tyrosinase-inhibition activity relative to Kojic acid [1]: 25 times
tyrosinase-inhibition activity relative to ascorbic acid [1]: 75 times
Compound: CC1(C)C=Cc2c(ccc3c2OC[C@@H](c2ccc(O)cc2O)C3)O1 [Glabridin]

Compound: CCCCCCCCC(CCCCCC)C(=O)OC[C@H](OC(=O)C(CCCCCC)CCCCCCCC)[C@H]1OC(=O)C(OC(=O)C(CCCCCC)CCCCCCCC)=C1OC(=O)C(CCCCCC)CCCCCCCC (stereo partly drawn) [tetrahexyldecyl ascorbate]
8-OHdG induced by UV-A radiation [2]: decreases
p53 expression induced by UV-B radiation [3]: decreases
reduction of melanin synthesis [4]: 80%

Compound: Tocotrienol
strength and effectiveness at repairing skin damage relative to regular Vitamin E [5]: 40-50 times
